Laboratory results from patent US20220204456A1, “COMPOUND FOR TREATING AUTOIMMUNE SKIN DISEASES CAUSED BY INFLAMMATION, AND USE THEREOF” (GenEros Biopharma Ltd., priority 2019, published 2022).
“Also recorded” adds a separate entry of the source.

Tests used:
[1] = Animal body weight in psoriasis model, Example 1; assay type: in vivo, BALB/c mice; conditions: for Statistical significance analysis of body weight: vs vehicle control group, t-test, DEX cream 70 mg external
Protocol: (§1) Female BALB/c mice (purchased from Shanghai SLACK Laboratory Animal Co., Ltd, administered at 6 weeks of age) were randomly divided into groups after adapting to the environment. Except for the normal control group, the rest of the animals received imiquimod ointment (5%) externally to induce the establishment of a psoriasis model. Specifically, the mice were shaved off same area of the back hair and applied with 62.5 mg of imiquimod ointment daily for seven consecutive days. Animals received different treatment programs, weighed daily, orally or externally applied with drugs once, and recorded with disease progression score.
(§2) Both the vehicle control group and the Nib1 treatment group received oral gavage of the same volume of drugs, formulated with 30% PEG300, and the Nib1 group was given a dose of 10 mg/kg. Dexamethasone ointment was used as a positive treatment drug and received 70 mg smear treatment once a day. The disease progression score is evaluated on a scale of 0-4 based on three indicators, rash, peeling, and thickening (0: no symptoms; 1: mild symptoms; 2: moderate symptoms; 3: significant symptoms; 4: very significant symptoms). At the end of the experiment, the animals were sacrificed, and pathological section analysis was performed on the skin samples of the back lesions.

[2] = tested on: psoriasis model; test: Clinical scoring (rash, peeling, thickening) in imiquimod-induced psoriasis model, Example 1; assay type: in vivo, BALB/c mice; conditions: for statistical significance analysis of rash scores / statistical significance analysis of skin thickening scores / statistical significance analysis of total clinical scores / statistical significance analysis of peeling scores: vs vehicle control group, t-test, Nib1 10 mg/kg oral, DEX cream 70 mg external
Protocol: as §1, §2
The clinical scoring of three indicators including skin rash, peeling and thickening were recorded and shown as statistical average value and ±standard error by day.

[3] = J Neurol Neurosurg Psychiatry 1986;49:791-795; cited from earlier work
[4] = tested on: psoriasis model; test: Pathological section analysis and scoring of back lesion skin, Example 1; assay type: in vivo, BALB/c mice; conditions: Nib1 10 mg/kg oral
Protocol: as §2
The pathological sections of animal skin were stained with eosin. Three samples were selected for each group.

[5] = Animal body weight in psoriasis model, Example 2 (external application); assay type: in vivo, BALB/c mice; conditions: 70 mg external once a day for 7 days
Protocol: After adapting to the environment, female BALB/c mice were randomly divided into groups. Except for the normal control group, the rest received external treatment with imiquimod ointment (5%) to induce the establishment of a psoriasis model. Specifically, the mice were shaved off the same area (2×3 cm) of back hair and applied with 62.5 mg ointment daily for seven consecutive days. The animals received different treatments, weighed daily, received 70 mg smear treatment once, and recorded with disease progression score. The disease progression score is evaluated on a scale of 0-4 based on three indicators, rash, peeling, and thickening (0: no symptoms; 1: mild symptoms; 2: moderate symptoms; 3: significant symptoms; 4: very significant symptoms). At the end of the experiment, the animals were sacrificed, and pathological section analysis was performed on the skin samples of the back lesions.

[6] = Nib1 10 mg/kg oral once a day, vs model group

Row | SMILES | statistical significance analysis of rash scores ([2]; day 1) | statistical significance analysis of skin thickening scores ([2]; day 1) | statistical significance analysis of total clinical scores ([2]; day 1) | statistical significance analysis of rash scores ([2]; day 2) | statistical significance analysis of total clinical scores ([2]; day 2) | statistical significance analysis of peeling scores ([2]; day 3) | statistical significance analysis of rash scores ([2]; day 3) | statistical significance analysis of skin thickening scores ([2]; day 3) | statistical significance analysis of total clinical scores ([2]; day 3) | statistical significance analysis of peeling scores ([2]; day 4) | statistical significance analysis of skin thickening scores ([2]; day 4) | statistical significance analysis of total clinical scores ([2]; day 4) | statistical significance analysis of peeling scores ([2]; day 5) | statistical significance analysis of skin thickening scores ([2]; day 5) | statistical significance analysis of total clinical scores ([2]; day 5) | statistical significance analysis of peeling scores ([2]; day 6) | statistical significance analysis of skin thickening scores ([2]; day 6) | statistical significance analysis of total clinical scores ([2]; day 6) | further results
1 | O=c1[nH]c2ccccc2n1C1CCN(CCCC(c2ccc(F)cc2)c2ccc(F)cc2)CC1 [Nib1, Pimozide] | **** (**** p < 0.0001) | ** (** p < 0.01) | **** (**** p < 0.0001) | * (* p < 0.05) | ** (** p < 0.01) | *** (*** p < 0.001) | ** (** p < 0.01) | * (* p < 0.05) | **** (**** p < 0.0001) | *** (*** p < 0.001) | *** (*** p < 0.001) | **** (**** p < 0.0001) | **** (**** p < 0.0001) | *** (*** p < 0.001) | *** (*** p < 0.001) | ** (** p < 0.01) | ** (** p < 0.01) | ** (** p < 0.01) | toxic and side effect (judged from body weight) ([1]; mouse, in vivo, po, 10 mg/kg): significantly less than that of dexamethasone; remission by area under the clinical total score curve (AUC) ([2]; Nib1 10 mg/kg oral once a day for 7 days, compared with the disease model group): 32.2%; total score of the three clinical indicators ([2]; Nib1 10 mg/kg oral once a day, vs disease model group, 10 mg/kg): significantly lower clinical symptoms than the disease model group; also recorded: significantly reduce the clinical symptoms of psoriasis; peeling clinical score [2, 6]: significantly reduce the peeling phenomenon; skin thickening clinical score [2, 6]: significantly reduced on the 4th, 5th, and 6th days; rash clinical score ([2]; Nib1 10 mg/kg oral once a day, vs model group, significantly different in the first three days): slightly reduced rash; systemic risks on long-term use [3]: has not shown systemic risks; pathological section findings (epidermal hyperplasia, immune cell infiltration) ([4]; stained skin sections, 100x): improve epidermal hyperplasia and reduce immune cell infiltration; remission effect by pathological section score ([4]; scoring system of Table 2, p<0.01 vs vehicle control, one-way ANOVA): 32.5%
2 | C[C@@H]1C[C@H]2[C@@H]3CCC4=CC(=O)C=C[C@]4(C)[C@@]3(F)[C@@H](O)C[C@]2(C)[C@@]1(O)C(=O)CO [DEX, Dexamethasone] | ** (** p < 0.01) | **** (**** p < 0.0001) | **** (**** p < 0.0001) | **** (**** p < 0.0001) | **** (**** p < 0.0001) | **** (**** p < 0.0001) | **** (**** p < 0.0001) | **** (**** p < 0.0001) | **** (**** p < 0.0001) | **** (**** p < 0.0001) | **** (**** p < 0.0001) | **** (**** p < 0.0001) | **** (**** p < 0.0001) | **** (**** p < 0.0001) | **** (**** p < 0.0001) | **** (**** p < 0.0001) | **** (**** p < 0.0001) | **** (**** p < 0.0001) | weight loss [5]: more than 25%; body weights of the animals ([1]; Example 1, 7 days, Nib1 10 mg/kg oral, dexamethasone ointment 70 mg topical, once a day): significantly reduced; Statistical significance analysis of body weight ([1]; day 1, Nib1 10 mg/kg oral): * (* p < 0.05); Statistical significance analysis of body weight ([1]; day 4, Nib1 10 mg/kg oral): * (* p < 0.05); Statistical significance analysis of body weight ([1]; day 5, Nib1 10 mg/kg oral): ** (** p < 0.01); Statistical significance analysis of body weight ([1]; day 6, Nib1 10 mg/kg oral): **** (**** p < 0.0001); Statistical significance analysis of body weight ([1]; day 7, Nib1 10 mg/kg oral): **** (**** p < 0.0001); statistical significance analysis of skin thickening scores ([2]; day 2): **** (**** p < 0.0001); statistical significance analysis of rash scores ([2]; day 4): **** (**** p < 0.0001); statistical significance analysis of rash scores ([2]; day 5): **** (**** p < 0.0001); statistical significance analysis of rash scores ([2]; day 6): **** (**** p < 0.0001); statistical significance analysis of peeling scores ([2]; day 7): *** (*** p < 0.001); statistical significance analysis of rash scores ([2]; day 7): **** (**** p < 0.0001); statistical significance analysis of skin thickening scores ([2]; day 7): **** (**** p < 0.0001); statistical significance analysis of total clinical scores ([2]; day 7): **** (**** p < 0.0001)
